ChEMBL document CHEMBL1201862, “PubChem BioAssay data set” (2004)
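Step 1: Grow cells in 96-well plates. Step 2: Expose to compound for 48 hours at 5 concentrations. Step 3: Interpolate endpoints linearly; if unreached, use highest concentration. GI50 is the concentration that inhibits growth by half.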 Activity calls are given as the source filed them. Cut-off read from the data, not from the text of the source: active = GI50 up to about 1.1 µM and inactive = higher.

Tests used:
Test in all cases: DTP human tumour cell line panel, 48 h
[1] = tested on: HOP-18
[2] = tested on: LXFL 529
[3] = tested on: M19-MEL
[4] = tested on: XF498
[5] = tested on: DLD-1
[6] = tested on: DMS-114
[7] = tested on: BT-549
[8] = tested on: 786-0
[9] = tested on: RXF 631

**Q.** Which results are given for `COc1ccc(/C(Cl)=C(\CN(C)C)c2ccc(OC)c(OC)c2)cc1OC`?
**A.** GI50 [1]: > 100 µM (inactive); GI50 [2]: > 100 µM (inactive); GI50 [3]: > 100 µM (inactive); GI50 [4]: 19.8 µM (inactive)

**Q.** With `O=C(Nc1ccc(Cl)cc1)c1cc2cc(/N=N/c3ccccc3Cl)ccc2oc1=O` as the molecule, how does the GI50 [1] read?
**A.** 33.8 µM (inactive)

**Q.** What about the GI50 [5] of the same molecule?
**A.** 9.64 µM (inactive)

**Q.** And the GI50 [2]?
**A.** 8.11 µM (inactive)

**Q.** And the GI50 [3]?
**A.** 14.3 µM (inactive)

**Q.** What about the GI50 [4] of the same molecule?
**A.** 24.4 µM (inactive)

**Q.** And the GI50 [6]?
**A.** 5.81 µM (inactive)

**Q.** `O=C(Nc1cccc([N+](=O)[O-])c1)C(=O)C(C(=O)c1ccccc1F)C1OC(=O)C2C=CC=CC21` (stereo not given) was tested. Which GI50 [5] did it give?
**A.** 43.4 µM (inactive)

**Q.** And the GI50 [2]?
**A.** 30.5 µM (inactive)

**Q.** What about the GI50 [3] of the same molecule?
**A.** 31.6 µM (inactive)

**Q.** And the GI50 [4]?
**A.** 40.3 µM (inactive)

**Q.** `N/C(=N\O)N/N=C\c1ccc(O)c(O)c1O` was tested. Which GI50 [1] did it give?
**A.** > 100 µM (inactive)

**Q.** What about the GI50 [5] of the same molecule?
**A.** 23.8 µM (inactive)

**Q.** What about the GI50 [3] of the same molecule?
**A.** 20.1 µM (inactive)

**Q.** And the GI50 [4]?
**A.** > 100 µM (inactive)

**Q.** And the GI50 [6]?
**A.** 21.2 µM (inactive)

**Q.** What does the source list for `S=c1sc2c(s1)SC(c1ccccc1)CS2` (stereo not given)?
**A.** GI50 [1]: > 100 µM (inactive); GI50 [5]: > 100 µM (inactive); GI50 [3]: > 100 µM (inactive); GI50 [6]: > 47.9 µM (inactive)

**Q.** With `CCOC(=O)C(O)(NC(=O)c1ccccc1F)C(F)(F)F` (stereo not given) as the molecule, how does the GI50 [7] read?
**A.** > 100 µM (inactive)

**Q.** For `COc1cc([N+](=O)[O-])ccc1N1C(=O)C2c3[nH]c4ccccc4c3C3CCC(C(C)(C)C)CC3C2C1=O` (stereo not given), which GI50 [7] is on record?
**A.** 32 µM (inactive)

**Q.** For `C=CCCC(On1c(-c2ccc(Cl)cc2)csc1=S)c1ccccc1` (stereo not given), which GI50 [8] is on record?
**A.** 32.6 µM (inactive)

**Q.** And the GI50 [7]?
**A.** 58.3 µM (inactive)

**Q.** With `CCOC(=O)C1=C(C)NC(=O)N([N+](=O)[O-])C1c1ccccc1C(F)(F)F` (stereo not given) as the molecule, how does the GI50 [7] read?
**A.** 54.6 µM (inactive)

**Q.** With `CNC(=O)OCC1=C(COC(=O)NC)CN(c2ccc(OC)cc2)C1` as the molecule, how does the GI50 [8] read?
**A.** > 100 µM (inactive)

**Q.** And the GI50 [7]?
**A.** > 100 µM (inactive)

**Q.** `CSc1nc(NC2OCC(OC(C)=O)C(OC(C)=O)C2OC(C)=O)c(/N=C(\C)C(C)=O)c(=O)[nH]1` (stereo not given) was tested. Which GI50 [1] did it give?
**A.** > 100 µM (inactive)

**Q.** And the GI50 [5]?
**A.** > 100 µM (inactive)

**Q.** What about the GI50 [2] of the same molecule?
**A.** > 100 µM (inactive)

**Q.** And the GI50 [4]?
**A.** > 100 µM (inactive)

**Q.** And the GI50 [6]?
**A.** > 100 µM (inactive)

**Q.** Which results are given for `COc1ccc([C@H]2c3cc4c(cc3OC(O)(CO)[C@H]2C(=O)O)OCO4)c(OC)c1.COc1ccc([C@H]2c3cc4c(cc3OC3(O)COC(=O)[C@@H]23)OCO4)c(OC)c1` (stereo not given in full)?
**A.** GI50 [1]: > 100 µM (inactive); GI50 [5]: 91.8 µM (inactive); GI50 [2]: > 100 µM (inactive); GI50 [3]: 61.7 µM (inactive); GI50 [4]: > 100 µM (inactive); GI50 [6]: > 100 µM (inactive)

**Q.** What does the source list for `O=C(Nc1ccc2[nH]c3c(-c4ccccc4)nccc3c2c1)c1ccccc1[N+](=O)[O-]`?
**A.** GI50 [1]: > 100 µM (inactive); GI50 [2]: 6.52 µM (inactive); GI50 [4]: 3.59 µM (inactive); GI50 [9]: 3.81 µM (inactive); GI50 [6]: 3.74 µM (inactive)

**Q.** How did the GI50 [5] turn out when `COC(=O)C(C)NP(=O)(N1CC1)N1CC1` (stereo not given) was run?
**A.** > 100 µM (inactive)

**Q.** What about the GI50 [2] of the same molecule?
**A.** > 100 µM (inactive)

**Q.** And the GI50 [4]?
**A.** > 100 µM (inactive)

**Q.** And the GI50 [9]?
**A.** > 100 µM (inactive)

**Q.** And the GI50 [6]?
**A.** 66.4 µM (inactive)

**Q.** With `Cc1ccc(C)c(NC(=O)CCC(=O)CC(=O)C(C)(C)C)c1` as the molecule, how does the GI50 [1] read?
**A.** > 100 µM (inactive)

**Q.** What about the GI50 [5] of the same molecule?
**A.** > 100 µM (inactive)

**Q.** And the GI50 [8]?
**A.** > 100 µM (inactive)

**Q.** What about the GI50 [2] of the same molecule?
**A.** > 100 µM (inactive)

**Q.** What about the GI50 [3] of the same molecule?
**A.** > 100 µM (inactive)

**Q.** What about the GI50 [4] of the same molecule?
**A.** > 100 µM (inactive)

**Q.** And the GI50 [6]?
**A.** > 100 µM (inactive)

**Q.** For `Cc1cccc(C)c1NC(=O)/C(CC(=O)CC(c1ccccc1)c1c(O)c2ccccc2oc1=O)=N/O` (stereo not given), which GI50 [8] is on record?
**A.** > 100 µM (inactive)

**Q.** What about the GI50 [7] of the same molecule?
**A.** > 100 µM (inactive)

**Q.** Which GI50 [7] does the source give for `CC1(C)N=C(c2ccccc2)SC12S[C@@H]1CCCC[C@H]1S2` here?
**A.** > 100 µM (inactive)

**Q.** How did the GI50 [7] turn out when `O=C1c2cc3c(cc2CC1Cc1ccc2c(c1)CCC2)CCC3` (stereo not given) was run?
**A.** 81.3 µM (inactive)

**Q.** `O=S(=O)(C1=CC(S(=O)(=O)c2ccccc2)CN(Cc2ccccc2)C1c1cccc2ccccc12)c1ccccc1` (stereo not given) was tested. Which GI50 [5] did it give?
**A.** > 69 µM (inactive)

**Q.** And the GI50 [8]?
**A.** > 69 µM (inactive)

**Q.** And the GI50 [3]?
**A.** > 69 µM (inactive)

**Q.** What about the GI50 [9] of the same molecule?
**A.** > 69 µM (inactive)

**Q.** And the GI50 [6]?
**A.** > 69 µM (inactive)

**Q.** Which GI50 [7] does the source give for `COc1ccc(C(=O)C2CC3(CCC2(O)c2ccc(OC)cc2)CC(=O)Nc2ccccc2C3=O)cc1` (stereo not given) here?
**A.** > 100 µM (inactive)

**Q.** How did the GI50 [7] turn out when `CCOC(=O)Cc1cnc(NC(NC(=O)CC)(C(F)(F)F)C(F)(F)F)s1` was run?
**A.** > 100 µM (inactive)

**Q.** `COc1cc(/N=N\c2cccc(S(=O)(=O)O)c2)ccc1/N=N\c1ccc(/C=C/c2ccc(-n3on3-c3ccc(/C=C/c4ccc(/N=N/c5ccc(/N=N\c6cccc(S(=O)(=O)O)c6)cc5OC)cc4S(=O)(=O)O)c(S(=O)(=O)O)c3)cc2S(=O)(=O)O)c(S(=O)(=O)O)c1` was tested. Which GI50 [1] did it give?
**A.** > 100 µM (inactive)

**Q.** What about the GI50 [5] of the same molecule?
**A.** > 100 µM (inactive)

**Q.** What about the GI50 [3] of the same molecule?
**A.** > 100 µM (inactive)

**Q.** What about the GI50 [4] of the same molecule?
**A.** > 83 µM (inactive)

**Q.** And the GI50 [6]?
**A.** > 100 µM (inactive)

**Q.** Which GI50 [1] does the source give for `COc1cc(C2c3cc4c(cc3[C@@H](Nc3ccc(Oc5ccccc5)cc3)C3COC(=O)[C@H]23)OCO4)cc(OC)c1O` (stereo not given in full) here?
**A.** 4.47 µM (inactive)

**Q.** What about the GI50 [5] of the same molecule?
**A.** 3.95 µM (inactive)

**Q.** And the GI50 [3]?
**A.** 4.36 µM (inactive)

**Q.** And the GI50 [4]?
**A.** 5.26 µM (inactive)

**Q.** And the GI50 [6]?
**A.** 0.597 µM (active)

**Q.** `Oc1nc2ccccc2c2oc3ccccc3c12` was tested. Which GI50 [7] did it give?
**A.** > 100 µM (inactive)
